Test results taken from US9725459B2, “3-oxo-tetrahydro-furo[3,2-B]pyrrol-4(5H)-yl) derivatives I” (GRÜNENTHAL GMBH, priority 2014, dated 2017).
Like-named read-outs stand apart in the source and are kept apart here.

Key:
Type in all cases: biochemical
human cathepsin S (CatS) = human cathepsin S (CatS) (Homo sapiens (Human), UniProt P25774); assay: CatS functional enzyme assay; conditions: for Selectivity Ki(hCatS)/Ki(hCatK): ratio Ki(hCatS)/Ki(hCatK); for Ki: read-out: hCatS, Ki
Experimental: Reference and test compounds were assayed for inhibitory potency (IC50) against human cathepsins using the following assay setups: Recombinant human cathepsins (CatS, CatK, CatL) were purchased from a Enzo Life Sciences. […] For CatS, the enzyme (0.0007 mU/well) was incubated with fluorogeninc substrate (Z-VVR-AMC, 5 μM) at RT for 10 min. For CatK the enzyme (0.00175 mU/well) was incubated with fluorogeninc substrate (Z-FR-AMC, 40 μM) at RT for 10 min. For CatL, the enzyme (0.000874 mU/well) was incubated with fluorogeninc substrate (Z-VVR-AMC, 40 μM) at RT for 10 min. Flourogenic substrate turnover was detected using a microplate reader (Synergy™ H4, BioTek). Ki values were calculated using the Cheng Prusoff equation (Cheng & Prosoff 1973).

human cathepsin L (CatL) = human cathepsin L (CatL) (Homo sapiens (Human), UniProt P07711); assay: CatL functional enzyme assay; conditions: read-out: hCatL, inhibition [%] at 31.6 μM
Experimental: (§1) Reference and test compounds were assayed for inhibitory potency (IC50) against human cathepsins using the following assay setups:
(§2) Recombinant human cathepsins (CatS, CatK, CatL) were purchased from a Enzo Life Sciences. All assays were carried out in 96-well format using a buffer of 50 mM KH2PO4, 50 mM NaCl, 2 mM EDTA, 0.5 mM DTT and 1% Triton-X-100, pH 6.5 for Cathepsin S and a buffer of 50 mM NaOAc, 10 mM EDTA, 1 mM DTT and 0.01% Triton-X-100, pH 5.5 for CatK/L/B. For CatS, the enzyme (0.0007 mU/well) was incubated with fluorogeninc substrate (Z-VVR-AMC, 5 μM) at RT for 10 min. For CatK the enzyme (0.00175 mU/well) was incubated with fluorogeninc substrate (Z-FR-AMC, 40 μM) at RT for 10 min. For CatL, the enzyme (0.000874 mU/well) was incubated with fluorogeninc substrate (Z-VVR-AMC, 40 μM) at RT for 10 min. Flourogenic substrate turnover was detected using a microplate reader (Synergy™ H4, BioTek). Ki values were calculated using the Cheng Prusoff equation (Cheng & Prosoff 1973).

human cathepsin K (CatK) = human cathepsin K (CatK) (Homo sapiens (Human), UniProt P43235); assay: CatK functional enzyme assay; conditions: for Ki: recombinant human CatK, substrate Z-FR-AMC 40 μM, pH 5.5, Ki by Cheng Prusoff equation, read-out: hCatK, Ki
Experimental: as §1, §2

[1] = recombinant human CatS, substrate Z-VVR-AMC 5 μM, pH 6.5, Ki by Cheng Prusoff equation

human cathepsin K (CatK), sequence (P43235 115-329): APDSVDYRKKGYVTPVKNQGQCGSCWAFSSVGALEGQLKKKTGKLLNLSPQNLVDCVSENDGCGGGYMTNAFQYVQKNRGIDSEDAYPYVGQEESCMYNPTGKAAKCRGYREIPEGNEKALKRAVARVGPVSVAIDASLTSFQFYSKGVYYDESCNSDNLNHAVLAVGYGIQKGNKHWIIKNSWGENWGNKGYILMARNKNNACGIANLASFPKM
human cathepsin L (CatL), sequence (P07711 114-333): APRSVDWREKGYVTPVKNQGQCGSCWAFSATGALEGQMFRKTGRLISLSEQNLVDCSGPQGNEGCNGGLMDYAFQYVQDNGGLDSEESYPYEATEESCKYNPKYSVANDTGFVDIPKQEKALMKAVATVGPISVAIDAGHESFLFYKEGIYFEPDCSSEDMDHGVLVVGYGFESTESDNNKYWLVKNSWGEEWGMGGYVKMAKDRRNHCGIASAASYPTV
human cathepsin S (CatS), sequence (P25774 115-331): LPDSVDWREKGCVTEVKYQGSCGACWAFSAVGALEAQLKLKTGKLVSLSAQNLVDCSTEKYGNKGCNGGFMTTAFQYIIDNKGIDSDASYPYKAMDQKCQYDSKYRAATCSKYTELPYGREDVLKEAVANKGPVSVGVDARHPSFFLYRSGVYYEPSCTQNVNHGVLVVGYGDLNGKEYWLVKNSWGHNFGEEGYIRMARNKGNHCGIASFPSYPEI

SMILES	Selectivity Ki(hCatS)/Ki(hCatK) (human cathepsin S (CatS))	Ki (human cathepsin S (CatS); [1])	inhibition at 31.6 µM (human cathepsin L (CatL))	Ki (human cathepsin K (CatK))	Ki (human cathepsin S (CatS))	inhibition at 10 µM (human cathepsin S (CatS); read-out: hCatS, inhibition [%] at 10 μM)	inhibition at 10 µM (human cathepsin K (CatK); read-out: hCatK, inhibition [%] at 10 μM)
O=C(N[C@H](C(=O)N1C[C@H](Cl)[C@H]2OCC(=O)[C@H]21)C1CCCCC1)c1ncc(-c2ccncc2F)s1 [Example 50, N-((S)-2-((3aS,6S,6aS)-6-chloro-3-oxotetrahydro-2H-furo[3,2-b]pyrrol-4(5H)-yl)-1-cyclohexyl-2-oxoethyl)-5-(3-fluoropyridin-4-yl)thiazole-2-carboxamide]	66.6	0.733 µM	15%	0.011 µM	–	–	–
Cc1cc(-c2cnc(C(=O)N[C@H](C(=O)N3C[C@H](Cl)[C@H]4OCC(=O)[C@H]43)C3CCCCC3)s2)cn[n+]1[O-] [Example 77, 4-(2-(((S)-2-((3aS,6S,6aS)-6-chloro-3-oxotetrahydro-2H-furo[3,2-b]pyrrol-4(5H)-yl)-1-cyclohexyl-2-oxoethyl)carbamoyl)thiazol-5-yl)-6-methylpyridazine 1-oxide]	1.3	0.025 µM	12%	0.02 µM	–	–	–
O=C(N[C@H](C(=O)N1C[C@H](Cl)[C@H]2OCC(=O)[C@H]21)C1CCCCC1)c1ncc(-c2ccncn2)s1 [Example 26, N-((S)-2-((3aS,6S,6aS)-6-chloro-3-oxotetrahydro-2H-furo[3,2-b]pyrrol-4(5H)-yl)-1-cyclohexyl-2-oxoethyl)-5-(pyrimidin-4-yl)thiazole-2-carboxamide]	4.6	0.22 µM	32%	0.048 µM	–	–	–
Cc1cnncc1-c1ccc(C(=O)N[C@H](C(=O)N2C[C@H](Cl)[C@H]3OCC(=O)[C@H]32)C2CCCCC2)s1 [Example 90, N-((S)-2-((3aS,6S,6aS)-6-chloro-3-oxotetrahydro-2H-furo[3,2-b]pyrrol-4(5H)-yl)-1-cyclohexyl-2-oxoethyl)-5-(5-methylpyridazin-4-yl)thiophene-2-carboxamide]	7.3	0.073 µM	20%	0.01 µM	–	–	–
Cc1cc(-c2cnc(C(=O)N[C@H](C(=O)N3C[C@H](Cl)[C@H]4OCC(=O)[C@H]43)C3CCCCC3)s2)cnn1 [Example 75, N-((S)-2-((3aS,6S,6aS)-6-chloro-3-oxotetrahydro-2H-furo[3,2-b]pyrrol-4(5H)-yl)-1-cyclohexyl-2-oxoethyl)-5-(6-methylpyridazin-4-yl)thiazole-2-carboxamide]	1.2	0.021 µM	28%	0.018 µM	–	–	–
O=C(N[C@H](C(=O)N1C[C@H](Cl)[C@H]2OCC(=O)[C@H]21)C1CCCCC1)c1cc(F)c(-c2cncnc2)s1 [Example 37, N-((S)-2-((3aS,6S,6aS)-6-chloro-3-oxotetrahydro-2H-furo[3,2-b]pyrrol-4(5H)-yl)-1-cyclohexyl-2-oxoethyl)-4-fluoro-5-(pyrimidin-5-yl)thiophene-2-carboxamide]	26.7	–	29%	0.015 µM	0.401 µM	–	–
O=C(N[C@H](C(=O)N1C[C@H](Cl)[C@H]2OCC(=O)[C@H]21)C1CCCCC1)c1ncc(-c2cnc(C3CC3)nc2)s1 [Example 57, N-((S)-2-((3aS,6S,6aS)-6-chloro-3-oxotetrahydro-2H-furo[3,2-b]pyrrol-4(5H)-yl)-1-cyclohexyl-2-oxoethyl)-5-(2-cyclopropylpyrimidin-5-yl)thiazole-2-carboxamide]	3.6	0.15 µM	23%	0.042 µM	–	–	–
Cc1nc(-c2cccnc2)sc1C(=O)N[C@H](C(=O)N1C[C@H](Cl)[C@H]2OCC(=O)[C@H]21)C1CCCCC1 [Example 14, N-((S)-2-((3aS,6S,6aS)-6-chloro-3-oxotetrahydro-2H-furo[3,2-b]pyrrol-4(5H)-yl)-1-cyclohexyl-2-oxoethyl)-4-methyl-2-(pyridin-3-yl)thiazole-5-carboxamide]	–	–	21%	–	–	70%	88%
O=C(N[C@H](C(=O)N1C[C@H](Cl)[C@H]2OCC(=O)[C@H]21)C1CCCCC1)c1ccc(-c2ccc(C(F)(F)F)nc2)s1 [Example 62, N-((S)-2-((3aS,6S,6aS)-6-chloro-3-oxotetrahydro-2H-furo[3,2-b]pyrrol-4(5H)-yl)-1-cyclohexyl-2-oxoethyl)-5-(6-(trifluoromethyl)pyridin-3-yl)thiophene-2-carboxamide]	10.0	0.58 µM	25%	0.058 µM	–	–	–
O=C(N[C@H](C(=O)N1C[C@H](Cl)[C@H]2OCC(=O)[C@H]21)C1CCCCC1)c1ccc(-c2ncncc2F)s1 [Example 36, N-((S)-2-((3aS,6S,6aS)-6-chloro-3-oxotetrahydro-2H-furo[3,2-b]pyrrol-4(5H)-yl)-1-cyclohexyl-2-oxoethyl)-5-(5-fluoropyrimidin-4-yl)thiophene-2-carboxamide]	21.3	0.469 µM	9%	0.022 µM	–	–	–
COc1cnnc(-c2ccc(C(=O)N[C@H](C(=O)N3C[C@H](Cl)[C@H]4OCC(=O)[C@H]43)C3CCCCC3)s2)c1 [Example 72, N-((S)-2-((3aS,6S,6aS)-6-chloro-3-oxotetrahydro-2H-furo[3,2-b]pyrrol-4(5H)-yl)-1-cyclohexyl-2-oxoethyl)-5-(5-methoxypyridazin-3-yl)thiophene-2-carboxamide]	1.4	0.055 µM	30%	0.039 µM	–	–	–
O=C(N[C@H](C(=O)N1C[C@H](Cl)[C@H]2OCC(=O)[C@H]21)C1CCCCC1)c1ncc(-c2cnccn2)s1 [Example 48, N-((S)-2-((3aS,6S,6aS)-6-chloro-3-oxotetrahydro-2H-furo[3,2-b]pyrrol-4(5H)-yl)-1-cyclohexyl-2-oxoethyl)-5-(pyrazin-2-yl)thiazole-2-carboxamide]	17.3	0.242 µM	7%	0.014 µM	–	–	–
Cc1cc(-c2cnc(C(=O)N[C@H](C(=O)N3C[C@H](Cl)[C@H]4OCC(=O)[C@H]43)C3CCCCC3)s2)ccn1 [Example 51, N-((S)-2-((3aS,6S,6aS)-6-chloro-3-oxotetrahydro-2H-furo[3,2-b]pyrrol-4(5H)-yl)-1-cyclohexyl-2-oxoethyl)-5-(2-methylpyridin-4-yl)thiazole-2-carboxamide]	24.7	0.173 µM	6%	0.007 µM	–	–	–
O=C(N[C@H](C(=O)N1C[C@H](Cl)[C@H]2OCC(=O)[C@H]21)C1CCCCC1)c1ncc(-c2cnc(C(F)(F)F)nc2)s1 [Example 67, N-((S)-2-((3aS,6S,6aS)-6-chloro-3-oxotetrahydro-2H-furo[3,2-b]pyrrol-4(5H)-yl)-1-cyclohexyl-2-oxoethyl)-5-(2-(trifluoromethyl)pyrimidin-5-yl)thiazole-2-carboxamide]	4.7	0.198 µM	8%	0.042 µM	–	–	–
O=C(N[C@H](C(=O)N1C[C@H](Cl)[C@H]2OCC(=O)[C@H]21)C1CCCCC1)c1ncc(-c2ccc(C3CC3)nc2)s1 [Example 64, N-((S)-2-((3aS,6S,6aS)-6-chloro-3-oxotetrahydro-2H-furo[3,2-b]pyrrol-4(5H)-yl)-1-cyclohexyl-2-oxoethyl)-5-(6-cyclopropylpyridin-3-yl)thiazole-2-carboxamide]	21.3	0.616 µM	5%	0.029 µM	–	–	–
O=C(N[C@H](C(=O)N1C[C@H](Cl)[C@H]2OCC(=O)[C@H]21)C1CCCCC1)c1ccc(-c2ccc(F)nn2)s1 [Example 38, N-((S)-2-((3aS,6S,6aS)-6-chloro-3-oxotetrahydro-2H-furo[3,2-b]pyrrol-4(5H)-yl)-1-cyclohexyl-2-oxoethyl)-5-(6-fluoropyridazin-3-yl)thiophene-2-carboxamide]	10.7	0.213 µM	30%	0.02 µM	–	–	–
